In US8188135B2, “Compounds as cannabinoid receptor ligands” (priority 2008, dated 2012) one finds EC50 and Ki data, which are given here for 15 molecules.

The target in assay [1] is T1, rat CB2 (Rattus norvegicus, UniProt Q9QZN9).
T1 sequence (Q9QZN9 1-360): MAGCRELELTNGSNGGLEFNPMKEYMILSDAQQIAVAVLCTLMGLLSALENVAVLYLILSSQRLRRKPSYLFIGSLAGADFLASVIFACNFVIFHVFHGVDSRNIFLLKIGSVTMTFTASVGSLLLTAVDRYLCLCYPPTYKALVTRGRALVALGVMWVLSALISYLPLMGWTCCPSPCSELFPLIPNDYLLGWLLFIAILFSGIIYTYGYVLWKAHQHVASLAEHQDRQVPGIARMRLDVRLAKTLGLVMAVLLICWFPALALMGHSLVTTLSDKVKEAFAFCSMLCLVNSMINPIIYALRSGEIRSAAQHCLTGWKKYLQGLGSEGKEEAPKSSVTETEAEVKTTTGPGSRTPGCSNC
Put plainly: rat CB2 cyclase functional assay (HitHunter cAMP). Type of assay: cell-based. Also on record: expressed in transfected cells; host or cells: HEK. Conditions: HEK cells, forskolin 18 μM. The method, then: (§1) The cyclase functional assays were performed using the HitHunter™ cAMP assay kit from DiscoveRx (Fremont, Calif.) according to vendor's protocol. Briefly, HEK cells expressing CB2 or CB1 receptors (rat or human) were detached using cell dissociation buffer (Invitrogen, Carlsbad, Calif.), dispersed and placed in suspension at 10,000 cells per well in 96 well plates prior to the assay. Cell suspensions were incubated at 37° C. for 20 min with variable concentrations of test ligands and or 10 μM CP 55,940-positive control in the presence of a fixed concentration of forskolin (18 μM for rat CB2 and 37 μM for rat CB1) in Dulbescco's phosphate-buffered saline (Invitrogen, Carlsbad, Calif.) supplemented with bovine serum albumin (0.01% final concentration). The reactions were terminated by the addition of lysis buffer and the luminescence was detected following the procedure according to the manufacturer's instructions. EC50 values were calculated using sigmoidal dose-response curve fitting from Prism (GraphPad).

The target in assay [2] is T1, rat CB2. The experiment in a line: rat CB2 radioligand binding assay ([3H]CP 55,940 competition). Also on record: expressed in transfected cells; host or cells: HEK293. Conditions: rat CB2 (Ki, nM), HEK293 membranes, 0.5 nM [3H]CP 55,940. The gist of the method:
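Membranes (20 μg protein/well) from HEK293 cells stably expressing the receptor were incubated 45 min at 30 °C with 0.5 nM [3H]CP 55,940 and five concentrations of test compound (0.01 nM–10 μM) in Tris/EDTA/MgCl2/BSA buffer, pH 7.4. Bound ligand was measured by GF/C filtration and scintillation counting; 10 μM CP 55,940 defined nonspecific binding.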

Assay [3] concerns the target T2, human CB2 receptors (Homo sapiens, UniProt P34972).
T2 construct: expressed in transfected cells; host or cells: HEK293
Put plainly: human CB2 radioligand binding assay ([3H]CP 55,940 competition). Particulars: human CB2 (Ki, nM), HEK293 membranes, 0.5 nM [3H]CP 55,940. The gist of the method:
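Membranes from HEK293 cells stably expressing human CB2 (5 μg protein/well) competed against 0.5 nM [3H]CP 55,940 with five concentrations of test ligand (0.01 nM to 10 μM), pH 7.4 Tris buffer with BSA, 90 min at 30 °C. Filtration and scintillation counting; nonspecific binding with 10 μM unlabeled CP 55,940.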

The target in assay [4] is T3, Rat CB1 (Rattus norvegicus, UniProt P20272).
T3 construct: expressed in transfected cells; host or cells: HEK
T3 sequence (P20272 whole entry): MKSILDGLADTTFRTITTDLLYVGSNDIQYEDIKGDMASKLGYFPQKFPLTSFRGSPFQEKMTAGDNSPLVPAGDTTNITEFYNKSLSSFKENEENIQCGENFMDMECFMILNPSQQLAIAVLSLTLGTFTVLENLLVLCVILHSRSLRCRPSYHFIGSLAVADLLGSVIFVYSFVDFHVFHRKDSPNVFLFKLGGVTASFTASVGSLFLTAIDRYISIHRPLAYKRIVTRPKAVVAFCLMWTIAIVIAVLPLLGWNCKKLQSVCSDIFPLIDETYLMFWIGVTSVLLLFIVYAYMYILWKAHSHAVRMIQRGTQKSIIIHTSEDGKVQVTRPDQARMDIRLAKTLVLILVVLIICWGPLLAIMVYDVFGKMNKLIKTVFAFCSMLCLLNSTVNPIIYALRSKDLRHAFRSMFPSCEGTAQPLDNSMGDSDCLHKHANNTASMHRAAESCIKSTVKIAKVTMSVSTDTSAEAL
The experiment in a line: rat CB1 cyclase functional assay (HitHunter cAMP). Conditions: HEK cells, forskolin 37 μM. Type of assay: cell-based. The method, then:
as §1

The structures appear in SMILES notation. Read-outs that look alike come from different tables or passages of the source.

T2 sequence (P34972 whole entry): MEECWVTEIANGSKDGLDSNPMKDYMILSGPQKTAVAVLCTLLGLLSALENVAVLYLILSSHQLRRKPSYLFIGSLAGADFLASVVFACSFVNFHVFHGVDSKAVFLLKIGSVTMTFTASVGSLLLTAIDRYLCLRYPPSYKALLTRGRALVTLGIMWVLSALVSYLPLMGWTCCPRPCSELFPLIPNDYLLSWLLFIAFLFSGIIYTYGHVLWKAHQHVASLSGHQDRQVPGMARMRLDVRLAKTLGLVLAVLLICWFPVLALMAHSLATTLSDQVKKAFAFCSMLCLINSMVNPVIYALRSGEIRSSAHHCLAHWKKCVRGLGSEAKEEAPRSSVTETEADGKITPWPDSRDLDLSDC

Consider `Cn1c(C(C)(C)C)c/c(=N\C(=O)c2cc(C(F)(F)F)ccc2OCC[C@H]2COC(C)(C)O2)n1C[C@H]1CCCO1` [Example 17, N-{(3E)-5-tert-butyl-1-methyl-2-[(2R)-tetrahydrofuran-2-ylmethyl]-1,2-dihydro-3H-pyrazol-3-ylidene}-2-{2-[(4S)-2,2-dimethyl-1,3-dioxolan-4-yl]ethoxy}-5-(trifluoromethyl)benzamide], for which the concentration for a half-maximal effect (EC50) – broadly, the concentration at which the effect is half-maximal – in assay [1] (rat CB2 cyclase (EC50, nM)) was 0.7 nM; in assay [4] (Rat CB1 cyclase (EC50, nM)) it was above 27000 nM. Moreover, the inhibitory constant (Ki) (in general, a measure of affinity in units of concentration, obtained from inhibition or displacement) in assay [2] turned out to be 36 nM; in assay [3] it was 25 nM.

`Cn1c(C(C)(C)C)c/c(=N\C(=O)c2cc(C(F)(F)F)ccc2OCCS(C)(=O)=O)n1C[C@H]1CCCO1` [Example 56]: the concentration giving a half-maximal response (EC50) in assay [1] (rat CB2 cyclase (EC50, nM)) is 0.93 nM; in assay [4] (Rat CB1 cyclase (EC50, nM)), 2780 nM. Also, the results for the Ki in assay [2] and in assay [3] were 28 nM and 66 nM, respectively.

For `Cn1c(C(C)(C)C)c/c(=N\C(=O)c2cc(C(F)(F)F)ccc2OC[C@@H]2CCN2S(C)(=O)=O)n1CC1CC1` [Example 63, N-[(3E)-5-tert-butyl-2-(cyclopropylmethyl)-1-methyl-1,2-dihydro-3H-pyrazol-3-ylidene]-2-{[(2S)-1-(methylsulfonyl)azetidin-2-yl]methoxy}-5-(trifluoromethyl)benzamide], the 50% effective concentration (EC50) is 2.5 nM in assay [1] (rat CB2 cyclase (EC50, nM)) and above 27000 nM in assay [4] (Rat CB1 cyclase (EC50, nM)). The inhibition constant (Ki) is 139 nM in assay [2] and 301 nM in assay [3].

For the molecule `Cn1c(C(C)(C)C)c/c(=N\C(=O)c2cc(C(F)(F)F)cc(Cl)c2OC[C@@H]2CCCO2)n1C[C@H]1CCCO1` [Example 28, N-{(3E)-5-tert-butyl-1-methyl-2-[(2R)-tetrahydrofuran-2-ylmethyl]-1,2-dihydro-3H-pyrazol-3-ylidene}-3-chloro-2-[(2S)-tetrahydrofuran-2-ylmethoxy]-5-(trifluoromethyl)benzamide], the EC50 was 0.91 nM in assay [1] (rat CB2 cyclase (EC50, nM)) and 8090 nM in assay [4] (Rat CB1 cyclase (EC50, nM)). Moreover, the inhibition constant (Ki) amounted to 15 nM in assay [2] and 44 nM in assay [3].

Consider `Cn1c(C(C)(C)C)c/c(=N\C(=O)c2cc(C(F)(F)F)ccc2OC[C@@H]2CCCO2)n1C[C@H]1CCCO1` [Example 8, N-{(3E)-5-tert-butyl-1-methyl-2-[(2R)-tetrahydrofuran-2-ylmethyl]-1,2-dihydro-3H-pyrazol-3-ylidene}-2-[(2S)-tetrahydrofuran-2-ylmethoxy]-5-(trifluoromethyl)benzamide], for which the half-maximal effective concentration (EC50) came to 0.59 nM in assay [1] (rat CB2 cyclase (EC50, nM)) and 6340 nM in assay [4] (Rat CB1 cyclase (EC50, nM)). Besides, the Ki in assay [2] is 4.3 nM; in assay [3] it was 13 nM.

With `CCCCn1nc(C(C)(C)C)s/c1=N\C(=O)c1cc(C(F)(F)F)ccc1OC[C@@H]1CCCN1C` [Example 29, N-[(2Z)-3-butyl-5-tert-butyl-1,3,4-thiadiazol-2(3H)-ylidene]-2-{[(2S)-1-methylpyrrolidin-2-yl]methoxy}-5-(trifluoromethyl)benzamide], the 50% effective concentration (EC50) came out at 3.7 nM in assay [1] (rat CB2 cyclase (EC50, nM)) and 1680 nM in assay [4] (Rat CB1 cyclase (EC50, nM)). Besides, the figures for the inhibitory constant (Ki) in assay [2] and in assay [3] were 11 nM and 14 nM, respectively.

As to `Cn1c(C(C)(C)C)c/c(=N\C(=O)c2cc(C(F)(F)F)ccc2OC[C@H]2OCC[C@H]2F)n1C[C@H]1CCCO1` [Example 24], the EC50 in assay [1] (rat CB2 cyclase (EC50, nM)) worked out at 0.28 nM; in assay [4] (Rat CB1 cyclase (EC50, nM)), 9200 nM. Further, the Ki in assay [2] came out at 20 nM; in assay [3], 16 nM.

Consider `Cn1c(C(C)(C)C)c/c(=N\C(=O)c2cc(C(F)(F)F)ccc2OC[C@H]2CCCO2)n1C[C@H]1CCCO1` [Example 1, N-{(3E)-5-tert-butyl-1-methyl-2-[(2R)-tetrahydrofuran-2-ylmethyl]-1,2-dihydro-3H-pyrazol-3-ylidene}-2-[(2R)-tetrahydrofuran-2-ylmethoxy]-5-(trifluoromethyl)benzamide], for which the EC50 in assay [1] (rat CB2 cyclase (EC50, nM)) is 1.1 nM; in assay [4] (Rat CB1 cyclase (EC50, nM)) it was 5510 nM. The inhibition constant (Ki) in assay [2] came out at 23 nM; in assay [3] it was 51 nM.

As for `Cn1c(C(C)(C)C)c/c(=N\C(=O)c2cc(C(F)(F)F)ccc2OCc2cccnc2)n1C[C@H]1CCCO1` [Example 43, N-{(3E)-5-tert-butyl-1-methyl-2-[(2R)-tetrahydrofuran-2-ylmethyl]-1,2-dihydro-3H-pyrazol-3-ylidene}-2-(pyridin-3-ylmethoxy)-5-(trifluoromethyl)benzamide], the concentration for a half-maximal effect (EC50) is 2.4 nM in assay [1] (rat CB2 cyclase (EC50, nM)) and above 27000 nM in assay [4] (Rat CB1 cyclase (EC50, nM)). Also, the inhibitory constant (Ki) worked out at 56 nM in assay [2] and 220 nM in assay [3].

On to `Cn1c(C(C)(C)C)c/c(=N\C(=O)c2cc(C(F)(F)F)ccc2OCCNS(C)(=O)=O)n1C[C@H]1CCCO1` [Example 45, N-{(3E)-5-tert-butyl-1-methyl-2-[(2R)-tetrahydrofuran-2-ylmethyl]-1,2-dihydro-3H-pyrazol-3-ylidene}-2-{2-[(methylsulfonyl)amino]ethoxy}-5-(trifluoromethyl)benzamide], for which the EC50 is 0.47 nM in assay [1] (rat CB2 cyclase (EC50, nM)) and 4940 nM in assay [4] (Rat CB1 cyclase (EC50, nM)). Moreover, the Ki came to 7.8 nM in assay [2] and 19 nM in assay [3].

With `Cn1c(C(C)(C)C)c/c(=N\C(=O)c2cc(C(F)(F)F)ccc2OCCCS(C)(=O)=O)n1C[C@H]1CCCO1` [Example 60, N-{(3E)-5-tert-butyl-1-methyl-2-[(2R)-tetrahydrofuran-2-ylmethyl]-1,2-dihydro-3 H-pyrazol-3-ylidene}-2-[3-(methylsulfonyl)propoxy]-5-(trifluoromethyl)benzamide], the EC50 in assay [1] (rat CB2 cyclase (EC50, nM)) is 0.26 nM; in assay [4] (Rat CB1 cyclase (EC50, nM)) it was above 27000 nM. Moreover, the Ki in assay [2] came out at 42 nM; in assay [3], 92 nM.

For `Cn1c(C(C)(C)C)c/c(=N\C(=O)c2cc(C(F)(F)F)ccc2OCCNC(=O)OC(C)(C)C)n1C[C@H]1CCCO1` [Example 41, tert-butyl 2-[2-[({(3E)-5-tert-butyl-1-methyl-2-[(2R)-tetrahydrofuran-2-ylmethyl]-1,2-dihydro-3H-pyrazol-3-ylidene}amino)carbonyl]-4-(trifluoromethyl)phenoxy]ethylcarbamate], the EC50 in assay [1] (read-out: rat CB2 cyclase (EC50)) was 1000 nM; in assay [4] (read-out: Rat CB1 cyclase (EC50)), above 27000 nM. The figures for the Ki in assay [2] and in assay [3] were 21 nM and 96 nM, respectively.

As for `Cn1c(C(C)(C)C)c/c(=N\C(=O)c2cc(C(F)(F)F)ccc2OC[C@@H]2CCCN2)n1C[C@H]1CCCO1` [Example 62, N-{(3E)-5-tert-butyl-1-methyl-2-[(2R)-tetrahydrofuran-2-ylmethyl]-1,2-dihydro-3 H-pyrazol-3-ylidene}-2-[(2S)-pyrrolidin-2-ylmethoxy]-5-(trifluoromethyl)benzamide], the EC50 in assay [1] (rat CB2 cyclase (EC50, nM)) was 0.28 nM; in assay [4] (Rat CB1 cyclase (EC50, nM)) it was above 27000 nM. The inhibitory constant (Ki) in assay [2] came to 21 nM; in assay [3] it was 82 nM.

Turning to `CN1CCC[C@H]1COc1ccc(C(F)(F)F)cc1C(=O)/N=c1\oc(C(C)(C)C)cn1C[C@H]1CCCO1` [Example 32, N-[(2Z)-5-tert-butyl-3-[(2R)-tetrahydrofuran-2-ylmethyl]-1,3-oxazol-2(3H)-ylidene]-2-{[(2S)-1-methylpyrrolidin-2-yl]methoxy}-5-(trifluoromethyl)benzamide], the concentration for a half-maximal effect (EC50) is 0.6 nM in assay [1] (rat CB2 cyclase (EC50, nM)) and 3870 nM in assay [4] (Rat CB1 cyclase (EC50, nM)). The Ki was 75 nM in assay [2] and 88 nM in assay [3].

Regarding `Cn1c(C(C)(C)C)c/c(=N\C(=O)c2cc(C(F)(F)F)ccc2NC[C@@H]2CCCO2)n1C[C@H]1CCCO1` [Example 21, N-{(3E)-5-tert-butyl-1-methyl-2-[(2R)-tetrahydrofuran-2-ylmethyl]-1,2-dihydro-3H-pyrazol-3-ylidene}-2-{[(2S)-tetrahydrofuran-2-ylmethyl]amino}-5-(trifluoromethyl)benzamide], the half-maximal effective concentration (EC50) was found to be 0.19 nM in assay [1] (rat CB2 cyclase (EC50, nM)) and 901 nM in assay [4] (Rat CB1 cyclase (EC50, nM)). Besides, the Ki in assay [2] came to 0.6 nM; in assay [3], 0.9 nM.
